The values that follow come from paper PMC10451629, “Evaluation of the Effects of Heteroaryl Ethylene Molecules in Combination with Antibiotics: A Preliminary Study on Control Strains” (Antibiotics, 2023).

Structures are written as SMILES. Converted amounts (≈) assume the structure as drawn. “And” between values parts separate entries of the source, which are not always exact repeats. Equal entries are not always repeated. Where two headings read alike, the source gives them in different places. Some results are limits rather than exact numbers.

For test [1], the system named is CaCo-2 (ATCC HTB-37) colon–rectal cancer cell line. Description: MTT cytotoxicity assay on CaCo-2 cells. Format: cell-based, human. Particulars: for IC50: Homo sapiens, CaCo-2 cell line, MTT; for Percentage of cell growth, antibiotic / Percentage of cell growth, antibiotic + PB4 0.2 µM: CaCo-2. As for the experimental part:
To fully assess the biological activity of the new molecules, they were tested at different concentrations on the CaCo-2 (ATCC HTB-37) colon–rectal cancer cell line. These human cancer cells were exposed to compound solutions ranging in concentration from 100 µM to 0.01 µM. As a reference compound for these assays, we used 5-Fluorouracil (5-FU), a pyrimidine analog from the antimetabolite family.
The MTT assay was also performed for the selected antibiotics to evaluate the effect of their combined treatment with PB4.
To evaluate the effect of the heteroaryl ethylene compounds and the antibiotics, an MTT ([3-(4,5-dimethylthiazol-2-yl)-2,5-diphenyltetrazolium bromide]) assay was performed as previously described. […] Both concentrations were also tested in combination with PB4 0.2 µM. All antibiotics were provided by Thermo Scientific^TM Oxoid^TM, Basingstoke, UK. Twenty-four hours after plating, the cells were treated with 20 μL of each solution. Untreated cells were used as controls. […] The IC50 values were calculated by nonlinear regression analysis using GraphPad Prism 6.0 software.
(Tetrazolium dyes change colour on reduction, which living cells bring about.)

Test [2] concerns CaCo2 colon-rectal cancer cell line. Further details: method as in in-house dataset; Log(IC50) 48h: unit not given here. Particulars: in-house dataset previously tested by the authors' groups, ref in-house dataset, cited from earlier work; for IC50: 48h.
Another test deals with S. aureus ATCC29213. The following applies: QSAR dataset, cited from earlier work.
For a further test, the system named is E. faecalis ATCC 29212. The test can be described thus: Broth microdilution MIC. The format is cell-based, Enterococcus faecalis. The following applies: for MIC: Enterococcus faecalis. In general terms: Broth dilution looks for growth in wells or tubes with falling amounts of substance.
For another test, the system named is S. aureus ATCC 29213. The test can be described thus: Broth microdilution MIC. Format: cell-based. The following applies: Staphylococcus aureus.
For another test, the system named is S. aureus ATCC 12598. The test can be described thus: Broth microdilution MIC. The format is cell-based, Staphylococcus aureus. Particulars: Staphylococcus aureus.
For test [3], the system named is S. aureus ATCC BAA-1556 USA300. The test can be described thus: Broth microdilution MIC. The format is cell-based, Staphylococcus aureus. The following applies: for MIC: Staphylococcus aureus, S. aureus ATCC BAA-1556 USA300, substance alone.
Test [4] has as its system K. pneumoniae ATCC 700603. Description: Broth microdilution MIC. Format: cell-based, Klebsiella pneumoniae. Particulars: Klebsiella pneumoniae, ATCC700603, K. pneumoniae ATCC 700603; substance alone; read-out: MIC.
Another test deals with A. baumannii ATCC 17978. Description: Broth microdilution MIC. Format: cell-based. The following applies: Acinetobacter baumannii, ATCC17978, substance alone.
The test system of the next test is P. aeruginosa ATCC 27853. The test can be described thus: Broth microdilution MIC. Particulars: Pseudomonas aeruginosa, ATCC27853, P. aeruginosa ATCC 27853; substance alone; read-out: MIC. Format: cell-based, Pseudomonas aeruginosa.
The next test concerns S. enterica ATCC 14028. The test can be described thus: Broth microdilution MIC. Format: cell-based. The following applies: Salmonella enterica, ATCC14028, substance alone.
The subject of another test is E. coli ATCC 25922. The test can be described thus: Broth microdilution MIC. Format: cell-based. Particulars: Escherichia coli, ATCC25922, substance alone, read-out: MIC.
[5] abbreviates: Caco-2, 24 h, 24 h of treatment, read-out: IC50 at 24 h.
[6] abbreviates: Caco-2, 48 h, 48 h of treatment, read-out: IC50 at 48 h.
[7] abbreviates: in-house database, previously tested, ref Unpublished results.
The mark [8] stands for this setting: ATCC29212, E. faecalis ATCC 29212, substance alone, read-out: MIC.
The mark [9] stands for this setting: ATCC29213, S. aureus ATCC 29213, substance alone, read-out: MIC.
The mark [10] stands for this setting: ATCC12598, S. aureus ATCC 12598, substance alone, read-out: MIC.

Take `O=c1[nH]cc(F)c(=O)[nH]1` [5-FU, 5-Fluorouracil]: the figures for the IC50 in test [1] (setting [5]) and in test [1] (setting [6]) were ~27000 nM and 12900 nM, respectively.

On to `C[n+]1c(/C=C/c2ccc(-c3ccc(N4CCCCC4)s3)s2)ccc2ccccc21` [BC1], for which, in test [2], the IC50 was 20 µM and the “Log(IC50) 48h” value is given as 1.30.

Consider `CCCCN(CCCC)c1ccc(-c2ccc(/C=C/c3ccc(C(=O)O)c[n+]3C)s2)s1` [BCG3], for which, in test [2], the 50% inhibitory concentration (IC50) was 8 µM and the “Log(IC50) 48h” value is given as 0.90.

`CC[n+]1ccc2c(c1)CCC/C2=C\c1ccc(N(C)C)cc1` [BCM3]: the MIC with S. aureus ATCC29213 (setting [7]) was 64 µg/mL. Further, in [2], the IC50 is 1.35 µM and the “Log(IC50) 48h” value was 0.13.

On to `CN(C)c1ccc(/C=C/c2cccc[n+]2C)cc1` [BCM4], for which the MIC with E. faecalis ATCC 29212 (setting [8]) was ≥ 128 µg/mL and ≥ 350 µM; in the test with S. aureus ATCC 29213 (setting [9]), 128 µg/mL and 350 µM; in the test with S. aureus ATCC 12598 (setting [10]), 64 µg/mL and 175 µM; in [3], 64 µg/mL and 175 µM; in [4], > 128 µg/mL and ≥ 350 µM; in the test on A. baumannii ATCC 17978, ≥ 128 µg/mL and ≥ 350 µM. Also, the MIC with P. aeruginosa ATCC 27853 is > 128 µg/mL and ≥ 350 µM; in the test with S. enterica ATCC 14028 it was > 128 µg/mL and ≥ 350 µM; with E. coli ATCC 25922, ≥ 128 µg/mL and ≥ 350 µM. Moreover, the IC50 amounted to 720 nM in test [1] (setting [5]) and 100 nM in [1] (setting [6]).

With `C[n+]1c(/C=C/c2cc(Cl)ccc2O)cccc1/C=C/c1cc(Cl)ccc1O` [BCM12], the minimal inhibitory concentration (MIC) in the test on S. aureus ATCC29213 (setting [7]) is reported as > 128 µg/mL.

Turning to `CC[n+]1ccc2c(c1)CCC/C2=C\c1ccccc1O` [BCNAc1], in the test on S. aureus ATCC29213 (setting [7]), the MIC is recorded as > 128 µg/mL.

Take `C[n+]1ccccc1/C=C/c1ccc2ccc3c4c2c1C=CC4C=CC3` (centres unmarked) [GC VI 3]: in test [2], the IC50 was 0.9 µM and the “Log(IC50) 48h” value was -0.0458.

For the molecule `C[n+]1c(/C=C/c2ccc(N(c3ccccc3)c3ccccc3)cc2)ccc2ccccc21` [GC VI 14], in test [2], the IC50 is 4 µM and the “Log(IC50) 48h” value is recorded as 0.602.

For the molecule `CN(C)c1ccc(/C=C/c2cc[n+](C)cc2)cc1` [GC VI 17], in test [2], the IC50 is 8 µM and the “Log(IC50) 48h” value is 0.903.

Take `CN(C)c1ccc(/C=C/C=C/c2cc[n+](C)cc2)cc1` [GC VI 45]: in test [2], the IC50 was 16 µM and the “Log(IC50) 48h” value is given as 1.20.

With `C[n+]1c(/C=C/c2ccnc(-c3cc(/C=C/c4ccc5ccccc5[n+]4C)ccn3)c2)ccc2ccccc21` [GC VI 71], in [2], the IC50 is 51.2 µM and the “Log(IC50) 48h” value is recorded as 1.71.

With `CCOC(=O)C(C#N)c1ccc(/C=C/c2cc[n+](C)cc2)n1C` (centres unmarked) [GC VII 16], in test [2], the IC50 is 70 µM and the “Log(IC50) 48h” value was 1.85.

`C[n+]1ccccc1/C=C/c1ccc2ccccc2c1` [GC VII 46]: in [2], the IC50 was 5.5 µM and the “Log(IC50) 48h” value is listed as 0.740.

`C[n+]1ccccc1/C=C/c1ccc(N(c2ccccc2)c2ccccc2)cc1` [GC VII 47]: in test [2], the IC50 was 1 µM and the “Log(IC50) 48h” value is 0.

For `C[n+]1c(/C=C/c2ccc3ccccc3c2)cccc1/C=C/c1ccc2ccccc2c1` [GC-VII-39], the MIC is 16 µg/mL and 30.4 µM with E. faecalis ATCC 29212 (setting [8]); 128 µg/mL and 244 µM in the test with S. aureus ATCC 29213 (setting [9]); 32 µg/mL and 60.9 µM in the test with S. aureus ATCC 12598 (setting [10]); > 128 µg/mL and > 244 µM in test [3]; ≥ 128 µg/mL and ≥ 244 µM in test [4]; ≥ 128 µg/mL and ≥ 244 µM against A. baumannii ATCC 17978. Moreover, the MIC in the test with P. aeruginosa ATCC 27853 was ≥ 128 µg/mL and ≥ 244 µM; in the test on S. enterica ATCC 14028, ≥ 128 µg/mL and ≥ 244 µM; with E. coli ATCC 25922 it was ≥ 128 µg/mL. Also, the results for the IC50 in [1] (setting [5]) and in test [1] (setting [6]) were 230 nM and 180 nM, respectively.

Regarding `CN(C)c1ccc(/C=C/C=C/c2cccc[n+]2C)cc1` [GF I 25], in test [2], the IC50 was 10 µM and the “Log(IC50) 48h” value is given as 1.

Take `Cn1c(/C=C/c2ccncc2)ccc1/C=C/c1cc[n+](C)cc1` [GF I 30]: in test [2], the IC50 was 50 µM and the “Log(IC50) 48h” value was 1.70.

`Cn1c(/C=C/C2=C(C#N)C(=C(C#N)C#N)OC2(C)C)ccc1/C=C/c1cc[n+](C)cc1` [GF I 32]: in test [2], the IC50 is 32 µM and the “Log(IC50) 48h” value is listed as 1.51.

`CCCCN(CCCC)c1ccc(-c2ccc(/C=C/c3ccc4ccccc4[n+]3C)s2)s1` [PB2]: the MIC in the test with S. aureus ATCC29213 is recorded as 4 µg/mL.

With `C[n+]1ccc(/C=C/c2ccc(-c3cc(Cl)ccc3Cl)o2)cc1` [PB6], the minimal inhibitory concentration (MIC) in the test on S. aureus ATCC29213 is on record as 4 µg/mL.

In the case of `CC[n+]1ccc2c(c1)CCC/C2=C\c1ccc(-c2ccc(Cl)cc2)o1` [PB7], in the test with S. aureus ATCC29213, the MIC is 4 µg/mL.

As for `CCCCN(CCCC)c1ccc(-c2ccc(/C=C3\CCCc4c[n+](CC)ccc43)s2)s1` [PB8], in the test with S. aureus ATCC29213, the MIC is on record as 2 µg/mL.

Take `CO[C@H]1/C=C/O[C@@]2(C)Oc3c(C)c(O)c4c(O)c(c(/C=N/N5CCN(C)CC5)c(O)c4c3C2=O)NC(=O)/C(C)=C\C=C\[C@H](C)[C@H](O)[C@@H](C)[C@@H](O)[C@@H](C)[C@H](OC(C)=O)[C@@H]1C` [Rifampin, rifampin, reference compound]: in the test on E. faecalis ATCC 29212 (E. faecalis ATCC 29212, PB4 at fixed 0.125 μg/mL (0.24 μM), a quarter of an MIC value), the “MIC of antibiotic in combination with PB4” value turned out to be 6 ng/mL. Further, the “Reduction of antibiotic MIC by PB4” value was 2 -fold log reduction with E. faecalis ATCC 29212 (E. faecalis ATCC 29212, antibiotic + PB4 vs antibiotic alone) and 4 -fold log reduction in test [3] (S. aureus USA 300, antibiotic + PB4 vs antibiotic alone). The MIC was determined as 0.125 µg/mL (≈ 0.152 µM) in the test with E. faecalis ATCC 29212 (ATCC29212); 0.25 µg/mL (≈ 0.304 µM) in the test on E. faecalis ATCC 29212 (setting [8]); 0.125 µg/mL (≈ 0.152 µM) against S. aureus ATCC 29213 (ATCC29213); 0.125 µg/mL (≈ 0.152 µM) in the test on S. aureus ATCC 12598 (ATCC12598); 0.125 µg/mL (≈ 0.152 µM) in test [3]. Moreover, the “Percentage of cell growth, antibiotic” value in test [1] (antibiotic alone at MIC for E. faecalis ATCC 29212, 24 h) is 133.7%; in test [1] (antibiotic alone at MIC for E. faecalis ATCC 29212, 48 h) it was 282.6%; in test [1] (antibiotic alone at sub-MIC (half-MIC), 24 h), 146.6%; in test [1] (antibiotic alone at sub-MIC (half-MIC), 48 h), 265.6%. For the same molecule, the “Percentage of cell growth, antibiotic + PB4 0.2 µM” value in test [1] (antibiotic at MIC + PB4 0.2 µM, 24 h) is given as 126.9%; in [1] (antibiotic at MIC + PB4 0.2 µM, 48 h) it was 158.9%; in [1] (antibiotic at sub-MIC + PB4 0.2 µM, 24 h), 130.6%; in test [1] (antibiotic at sub-MIC + PB4 0.2 µM, 48 h), 163.7%.

In the case of `CCn1cc(/C=C/c2sc3ccccc3[n+]2CC)c2ccccc21` [SBT, reference compound], the MIC in the test with S. aureus ATCC29213 is reported as 1 µg/mL.

Take `CCn1cc(/C=C/c2ccc3ccccc3[n+]2CC)c2ccccc21` [SQL, reference compound]: the MIC with S. aureus ATCC29213 is 4 µg/mL.

As usually defined, the IC50 is the concentration that inhibits the measured activity by half. Broadly, the MIC is the lowest concentration found to suppress growth.
